Assay results reported in patent US20170172958A1, “Compounds for Use in Controlling Body Fat” (priority 2014, published 2017).

Experiments:
[1] = Plasma fatty acid concentrations (free and total); type: in vivo, Male C3H mice; conditions: vs control
From the text: (§1) Male C3H mice were used. Two cohorts of twelve mice were weaned and fed on a commercial standard diet (SDS Rat and Mouse No.3 Breeding diet (RM3)), containing 3.36 g% fat, 22.45 g % protein and 71.21 g % carbohydrate, till maturity. At 11 weeks of age, the standard diet was replaced with a high fat diet (Research Diets Inc, USA, D12492, containing 35 g % fat, from lard and soybean oil). One cohort was provided with BSO (30 mmol/L) in their drinking water, concomitant with the start of high fat feeding, while the other cohort (control group) received no treatment. The mice were kept in accordance with UK Home Office welfare guidelines and project license restrictions under controlled light (12-h light and 12-h dark cycle; dark 7 p.m.-7 a.m.), temperature (21° C.±2° C.) and humidity (55%±10%) conditions. They had free access to water (10 ppm chlorine) and food throughout the experiment.

[2] = Findeisen et al, cited from earlier work
[3] = tested on: adipocytes; conditions: Vigilanza et al; cited from earlier work
[4] = tested on: liver cells; test: Liver histology, fat vacuolation score; type: in vivo, Male C3H mice; conditions: high fat diet, vs control
From the text: as §1

[5] = tested on: stearoyl-coenzymeA desaturase (SCD); test: SCD activity indices (SCD16, SCD18) from plasma fatty acid ratios; type: in vivo, Male C3H mice; conditions: vs control
From the text: Compounds of Formula I inhibit SCD activity, which can be measured using one or more activity indices. These can be based on measurements of different fatty acid components of the blood plasma or serum.
Activity indices are based on the amount of monounsaturated fatty acids relative to their respective […] precursors. The most commonly used SCD activity indices are derived from the ratio of palmitoleic to palmitic acids (“SCD16 index”), and the ratio of oleic to stearic acid (“SCD18 index”). These ratios are lowered with increased inhibition of SCD. SCD indices can either be calculated from plasma/serum free fatty acids, or from the total fatty acid pool, which also includes esterified fatty acids (e.g. triglycerides and phospholipids). Indices calculated from free fatty acid concentrations reflect SCD activity in adipose tissue, while those from total fatty acids reflect SCD activity in liver (Warensjo et al, Lipids Health Dis 2009, 8:37). Both in rodents and humans, SCD indices are associated with fat mass.
as §1

[6] = Plasma and liver reduced and total glutathione, eight week BSO study; type: in vivo, Male C3H mice; conditions: eight weeks BSO, vs control
From the text: as §1
(§2) For the results presented in FIGS. 23 and 24, the experiments were carried out using the same conditions as described above (i.e. same mouse strain, mouse age, diet, and experimental design) except that the mice were treated for eight weeks with BSO, and the plasma for insulin, glucose, and leptin analysis was drawn after a 6-hour fast, after six weeks of BSO treatment.

[7] = rats, Ogihara et al; cited from earlier work
[8] = Plasma amino acids and sulphur compounds (tCys, tHcy, glutathione, taurine); type: in vivo, Male C3H mice
From the text: Further, SCD activity increases with high tCys concentration in both rodents and humans. tCys refers to all natural forms of circulating cysteine, such as cysteine (thiol form), cystine (disulphide form), cysteine-mixed disulphides with other thiol compounds, and protein-bound cysteine not in peptide linkage. tCys in the plasma or serum can be measured using techniques described, for example, in WO2010/010383.
as §1

[9] = Body mass of mice on a high fat diet, BSO in drinking water, four weeks; type: in vivo, Male C3H mice; conditions: BSO 30 mmol/L in drinking water, over four week treatment, control group showed significant weight gain
From the text: (§3) Male C3H mice were used. Two cohorts of twelve mice were weaned and fed on a commercial standard diet (SDS Rat and Mouse No.3 Breeding diet (RM3)), containing 3.36 g% fat, 22.45 g % protein and 71.21 g % carbohydrate, till maturity. At 11 weeks of age, the standard diet was replaced with a high fat diet (Research Diets Inc, USA, D12492, containing 35 g % fat, from lard and soybean oil). One cohort was provided with BSO (30 mmol/L) in their drinking water, concomitant with the start of high fat feeding, while the other cohort (control group) received no treatment. […]
(§4) Phenotyping tests were performed according to the European Phenotyping Resource for Standardised Screens (EMPReSS) from EUMORPHIA standardized protocols, available at http://empress.har.mrc.ac.uk. Body mass was measured daily on scales calibrated to 0.01 g. Metabolic rate was measured using indirect calorimetry (Oxymax; Columbus Instruments) to determine oxygen consumption and carbon dioxide production. Body composition (% fat tissue and % lean tissue) was assessed utilizing an EchoMRl-100 quantitative magnetic resonance whole body composition analyzer (Echo Medical Systems, Houston, Tex.).

[10] = Plasma ALT, lipid components, glucose and glycerol; type: in vivo, Male C3H mice; conditions: vs control
From the text: as §1

[11] = Body composition (EchoMRI) and dissected fat depots of mice on a high fat diet; type: in vivo, Male C3H mice
From the text: as §1, §4

[12] = Metabolic rate by indirect calorimetry (Oxymax); type: in vivo, Male C3H mice; conditions: dark and light phases, per unit weight, vs control, P<0.001
From the text: as §3, §4

[13] = Fasting plasma glucose, insulin and HOMA-IR, eight week BSO study; type: in vivo, Male C3H mice; conditions: after six weeks of BSO treatment, vs control
From the text: as §1
Thus, BSO-treated mice had lower glucose plasma levels, and lower insulin concentrations compared to the control. […] The HOMA IR index is a calculation of insulin resistance based on fasting glucose and insulin plasma levels, the calculation being known to those skilled in the art. Leptin plasma levels are also shown.
as §2

[14] = dissected mice, vs control, P<0.001

CCCCS(=N)(=O)CCC(N)C(=O)O (centres unmarked) [BSO, buthionine sulfoximine]
fatty acid plasma concentrations, a number of C14 to C22 fatty acids ([1]; free and total fatty acids): lower | free palmitic acid plasma concentration [1]: lower | free palmitoleic acid plasma concentration [1]: lower | insulin sensitivity [2]: preserve insulin sensitivity | diet-induced obesity ([2]; mice): reduce | energy expenditure ([2]; mice): increase | locomotor activity ([2]; mice): increase | adipogenesis [3]: increased adipogenesis | intracellular glutathione [3]: decreases | triglycerides in adipocytes [3]: triglyceride accumulation | liver fat vacuolation [4]: absent | oleic acid to stearic acid ratio (SCD18 index) ([5]; free fatty acids in plasma): lower | ratio of palmitoleic acid to palmitic acid (SCD16 index) ([5]; free fatty acids in plasma): lower | unsaturated/saturated fatty acid ratios (SCD16 and SCD18 activity indices) ([5]; total fatty acid concentrations in plasma): lower | liver rGSH levels [6]: similar | liver rGSH/tGSH ratio [6]: higher | liver tGSH levels [6]: lower | plasma rGSH/tGSH ratio [6]: similar | plasma reduced glutathione (rGSH) [6]: lower | plasma total glutathione (tGSH) [6]: lower | insulin resistance [7]: induces insulin resistance | concentration of amino acids in the plasma ([8]; difference between BSO and control cohorts): little difference | plasma glutathione concentrations ([8]; four week study, vs control): decrease | total homocysteine (tHcy) plasma concentrations ([8]; vs control): larger concentrations | plasma taurine concentrations ([8]; vs control cohort): substantially lower | plasma tCys concentrations ([8]; vs controls, all measured forms of cysteine): significantly and substantially lower | body weight [9]: reduction in body weight | plasma glucose ([10]; four week study): decreased | plasma glycerol [10]: decreased | plasma high density lipoprotein (HDL) [10]: lower | plasma low density lipoprotein (LDL) [10]: lower | plasma non-esterified fatty acids [10]: lower | plasma total cholesterol [10]: lower | plasma triglycerides ([10]; lower, particularly so): lower | plasma ALT concentrations ([10]; marker of NAFLD): substantially lower | amount of brown fat mass ([11]; dissected mice, vs control): similar | abdominal fat as a percentage of total body weight [11, 14]: significantly lower | quantity of abdominal fat in grams [11, 14]: significantly lower | lean mass ([11]; echo MRI, difference between BSO and control cohorts): only a relatively small difference | quantity of body fat ([11]; echo MRI, vs control mice, high fat diet): substantially lower | brown fat as a percentage of total fat mass ([11]; vs control, P<0.05): higher | abdominal fat mass as a percentage of total fat mass ([11]; vs control, P=0.055): trend towards decrease | carbon dioxide production [12]: greater | oxygen consumption [12]: significantly greater | glucose plasma levels ([13]; 6-hour fast): lower | insulin plasma concentrations ([13]; 6-hour fast): lower | HOMA insulin-resistance (IR) index ([13]; from fasting glucose and insulin): significantly lower
